Experimental data reported in patent US8686155B2, “Aurora kinase modulators and method of use” (Amgen Inc., priority 2006, dated 2014).
pEC50, pIC50: −log10 of the molar value. Where two headings read alike, the source gives them in different places.

Columns and labels:
[1] = test system: phosphorylation of Histone H3 in HeLa cells; test: HeLa cell 1-hour phospho-histone assay; format: cell-based; settings: Homo sapiens, % of cells pHH3 positive, unit inferred, read-out: inhibitory activity (EC50) in the phospho-histone H3 assay
Experimental: HeLa Cell 1-Hour Phospho-Histone Assay
The purpose of this assay is to test the inhibitory effect of Aurora compounds with respect to phosphorylation of Histone H3 in the cellular context. HeLa cells (9×10^4/well) are plated in black 96-well flat-bottom tissue culture plates and incubated for 40 hours prior to compound addition. Compounds are serially diluted in DMSO, followed by dilution into MEM containing 10 mM HEPES; 10 ul/well of diluted compounds are added to cells (0.5% DMSO final). Cells are incubated for 1 hour at 37° C. in 5% CO2. Cells are then fixed with 3.7% formaldehyde for 10 minutes, washed with wash buffer (1% goat serum and 0.1% Tween 20 in PBS), then permeabilized with 0.5% Triton X in PBS for 15 minutes. After washing with wash buffer, cells are incubated with primary antibody (Upstate #06-507 anti-phospho-histone (Ser 10) antibody (pHH3) for 1 hour at 10 ug/ml. After 2 washes with wash buffer, cells are incubated with secondary antibody (Molecular Probes #A11034 goat anti-rabbit Alexa-488 for 1 hour at 1 ug/ml+Hoechst 33342 nuclear dye at 1 ug/ml (Molecular Probes). Cells are washed 2 times with wash buffer, and buffer replaced with PBS. Plates are scanned on the Cellomics Array Scan (6 fields, ˜2000 cells/well) and % of cells that are pHH3 positive were calculated using the Cellomics algorithm.

AuroraA-TPX2 = target: T1, AuroraA-TPX2 (Homo sapiens, UniProt O14965); test: AuroraA-TPX2 Homogeneous Time Resolved Fluorescent (HTRF) kinase assay; format: biochemical
T1 construct: 20 μL of AuroraA-TPX2 KD GST; GST
T1 sequence (O14965 133-383 limits assumed): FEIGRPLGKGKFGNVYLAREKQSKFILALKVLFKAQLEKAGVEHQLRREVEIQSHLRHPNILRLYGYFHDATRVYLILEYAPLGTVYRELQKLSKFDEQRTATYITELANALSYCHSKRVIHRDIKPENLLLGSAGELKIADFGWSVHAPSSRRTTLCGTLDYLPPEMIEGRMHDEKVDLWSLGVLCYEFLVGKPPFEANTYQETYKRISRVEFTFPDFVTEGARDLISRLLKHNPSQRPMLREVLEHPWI
T1 sequence (Q9ULW0 1-43 partner limits assumed): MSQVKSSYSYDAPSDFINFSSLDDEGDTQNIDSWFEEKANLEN
Experimental: AuroraA-TPX2-Homogeneous Time Resolved Fluorescent (HTRF) Kinase Assay
The Aurora-A HTRF assay begins with Aurora-A in the presence of ATP phosphorylating the biotinylated peptide PLK. The reaction incubates for about 120 min. Detection reagents are added to quench the reaction. These agents stop the reaction by diluting out the enzyme and chelating the metals due to the presence of EDTA. After addition, the assay is incubated overnight to allow the detection reagents to equilibrate.
The final concentration of PLK is about 1 μM. […] Buffer conditions are as follows: 60 mM HEPES pH 7.5, 25 mM NaCl, 10 mM MgCl, 2 mM DTT, 0.05% BSA.
(§1) The assay is quenched and stopped with 160 μL of detection reagent. Detection reagents are as follows: Buffer made of 50 mM Tris, pH 7.5, 100 mM NaCl, 3 mM EDTA, 0.05% BSA, 0.1% Tween20. Added to this buffer prior to reading is Steptavidin allophycocyanin (SA-APC) at a final conc in the assay of 0.0005 mg/mL, and europilated anti-phosphoPLK Ab (Eu-anti-PLK) at a final conc of 0.02 nM.
The assay plate is read in either a Discovery or a RubyStar. The eu-anti-PLK is excited at 320 nm and emits at 615 nm to excite the SA-APC which in turn emits at 655 nm.

AuroraB = target: T2, AuroraB (Homo sapiens, UniProt Q96GD4); test: AuroraB Homogeneous Time Resolved Fluorescent (HTRF) kinase assay; format: biochemical
T2 construct: 20 μL of AuroraB FL His; His
Experimental: AuroraB-Homogeneous Time Resolved Fluorescent (HTRF) Kinase Assay:
The AuroraB HTRF assay begins with AuroraB in the presence of ATP phosphorylating the biotinylated peptide Histone H3. The reaction incubates for about 90 min. the reaction is quentched by addition of detection reagents, which stop the reaction by diluting out the enzyme and chelating the metals due to the presence of EDTA. After addition, the assay is incubated for about 60 min to allow detection reagents to equilibrate.
The AuroraB HTRF assay comprises 1 μL of compound in 100% DMSO, 20 μL of ATP and biotinylated Histone H3, and 20 μL of AuroraB FL His for a final volume of 41 μL. The final concentration of Histone H3 is 0.1 μM. The final concentration of ATP is 23 μM (Km(app)=23 μM+/−2.6) and the final concentration of AuroraB is 400 pM. Buffer conditions are as follows: 50 mM HEPES pH 7.5, 5 mM NaCl, 0.5 mM MgCl, 0.5 mM MnCl, 2 mM DTT, 0.05% BSA.
as §1, with “μl,” for “μL”, “0.001” for “0.0005”, “anti-phosphoHistoneH3” for “anti-phosphoPLK”, “(Eu-anti-His H3)” for “(Eu-anti-PLK)”, “0.064” for “0.02”
The assay plate is read in either a Discovery or a RubyStar. The eu-anti-HisH3 is excited at 320 nm and emits at 615 nm to excite the SA-APC which in turn emits at 655 nm. The ratio of SA-APC at 655 nm (excited due to close proximity to the Eu-anti-H HisH3 because of phosphorylation of the peptide) to free Eu-anti-HisH3 at 615 nm will give substrate phosphorylation.

[2] = ATP about 1 μM, biotinylated peptide PLK, read-out: average activity in the Aurora kinase A HTRF assay
[3] = ATP 23 μM, biotinylated peptide Histone H3, read-out: average activity in the Aurora kinase B HTRF assay
[4] = class symbols, read-out: AurA/TPX2_IC50_IP (Avg)
[5] = class symbols, read-out: AurB_IC50_IP (Avg)
[6] = numeric values, unit inferred, read-out: AurA/TPX2_IC50_IP (Avg)
[7] = numeric values, unit inferred, read-out: AurB_IC50_IP (Avg)

T2 sequence (Q96GD4 whole entry): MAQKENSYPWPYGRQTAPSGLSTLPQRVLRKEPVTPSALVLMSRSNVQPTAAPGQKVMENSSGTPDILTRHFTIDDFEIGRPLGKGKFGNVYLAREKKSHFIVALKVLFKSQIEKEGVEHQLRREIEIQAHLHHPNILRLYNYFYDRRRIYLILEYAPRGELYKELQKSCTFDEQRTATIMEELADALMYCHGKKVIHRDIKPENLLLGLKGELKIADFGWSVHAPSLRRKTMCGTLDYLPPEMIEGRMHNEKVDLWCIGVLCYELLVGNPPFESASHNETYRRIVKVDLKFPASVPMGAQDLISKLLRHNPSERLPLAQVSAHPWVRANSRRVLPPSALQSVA

pIC50 (AuroraA-TPX2; [4]) | pIC50 (AuroraB; [5]) | SMILES | other results
– | 5.60 to 6.30 | O=c1cc(-c2cccnc2Oc2ccc(Nc3nnc(-c4ccccc4)c4ccccc34)cc2)cc[nH]1 [compound 432] | –
≥ 7.00 | ≥ 7.00 | CCc1cc(-c2ccccc2)nnc1Nc1ccc(Oc2ncccc2-c2ccnc(N)n2)cc1 [compound 435] | –
6.30 to 7.00 | ≥ 7.00 | N#Cc1cccc(-c2ccncc2)c1Oc1ccc(Nc2nnc(-c3ccccc3)c3ccccc23)cc1 [compound 436] | –
≥ 7.00 | ≥ 7.00 | COc1ccccc1-c1nnc(Nc2ccc(Oc3ncccc3-c3ccnc(N)n3)cc2)c2ccccc12 [compound 437] | –
≥ 7.00 | ≥ 7.00 | COc1cccc(-c2nnc(Nc3ccc(Oc4ncccc4-c4ccnc(N)n4)cc3)c3ccccc23)c1 [compound 438] | –
≥ 7.00 | ≥ 7.00 | CCc1cc(-c2ccccc2)nnc1Nc1ccc(Oc2ncccc2-c2ccnc(N)n2)nc1 [compound 439] | –
≥ 7.00 | ≥ 7.00 | COc1ccccc1-c1nnc(Nc2ccc(Oc3ncccc3-c3ccnc(N)n3)nc2)c2ccccc12 [compound 440] | –
6.30 to 7.00 | 6.30 to 7.00 | COc1cccc(-c2nnc(Nc3ccc(Oc4ncccc4-c4ccnc(N)c4)cc3)c3ccccc23)c1 [compound 441] | –
≥ 7.00 | ≥ 7.00 | COc1cccc(-c2cc(C)c(Nc3ccc(Oc4ncccc4-c4ccnc(N)n4)cc3)nn2)c1 [compound 443] | –
6.30 to 7.00 | ≥ 7.00 | CCc1cc(-c2ccccc2)nnc1Nc1ccc(Oc2ncccc2-c2ccnc(N)c2)nc1 [compound 444] | –
≥ 7.00 | ≥ 7.00 | COCc1cc(-c2ccccc2)nnc1Nc1ccc(Oc2ncccc2-c2ccnc(N)n2)cc1 [compound 446] | –

Continued, molecule first:

SMILES | pIC50 (AuroraA-TPX2; [4]) | pIC50 (AuroraB; [5]) | other results
CNc1nccc(-c2cccnc2Oc2ccc(Nc3nnc(-c4ccccc4)c4c3C3CCC4CC3)cc2)n1 [Example 107, N-(4-((3-(2-(methylamino)-4-pyrimidinyl)-2-pyridinyl)oxy)phenyl)-6-phenyl-4,5-diazatricyclo [6.2.2.0~2,7~]dodeca-2,4,6-trien-3-amine] | – | – | pEC50 [1]: > 6.00
CNc1cc(-c2cnccc2Oc2ccc(Nc3nnc(-c4ccccc4)c4ccccc34)cc2)ccn1 [Example 242, N-(4-(3-(2-(methylamino)pyridin-4-yl)pyridin-4-yloxy)phenyl)-4-phenylphthalazin-1-amine] | – | – | pIC50 (AuroraA-TPX2; [2]): ≥ 7.00; pIC50 (AuroraB; [3]): ≥ 7.00
c1ccc(-c2nnc(Nc3ccc(Oc4ncncc4-c4ccncc4)cc3)c3ccccc23)cc1 [Example 243, 4-phenyl-N-(4-(5-(pyridin-4-yl)pyrimidin-4-yloxy)phenyl)phthalazin-1-amine] | – | – | pIC50 (AuroraA-TPX2; [2]): ≥ 7.00; pIC50 (AuroraB; [3]): ≥ 7.00
CNc1nccc(-c2cccnc2Oc2ccc(Oc3nnc(-c4ccccc4)c4ccccc34)cc2)n1 [Example 244, N-methyl-4-(2-(4-(4-phenylphthalazin-1-yloxy)phenoxy)pyridin-3-yl)pyrimidin-2-amine] | – | – | pIC50 (AuroraA-TPX2; [2]): ≥ 7.00; pIC50 (AuroraB; [3]): ≥ 7.00
CC(C)c1nnc(Nc2ccc(Oc3ncccc3-c3ccnc(N)n3)nc2)c2ccccc12 [compound 269] | 6.30 to 7.00 | – | –
Cc1cccc(-c2nnc(Nc3ccc(Oc4ncccc4-c4ccnc(N)n4)cc3)c3ccccc23)n1 [compound 271] | – | – | pIC50 (AuroraA-TPX2; numeric values, read-out: AurA/TPX2_IC50_IP (Avg)): 7.61; pIC50 (AuroraB; numeric values, read-out: AurB_IC50_IP (Avg)): 9.00
COCc1cccc(-c2nnc(Nc3ccc(Oc4ncccc4-c4ccnc(N)n4)cc3)c3ccccc23)n1 [compound 298] | ≥ 7.00 | ≥ 7.00 | –
Nc1nccc(-c2cccnc2Oc2ccc(Nc3nnc(-c4ccccc4)c4ccccc34)cn2)n1 [compound 415] | ≥ 7.00 | ≥ 7.00 | –
Cc1csc(-c2nnc(Nc3ccc(Oc4ncccc4-c4ccnc(N)c4)cc3)c3ccccc23)c1 [compound 416] | – | – | pIC50 (AuroraA-TPX2; [6]): 7.27; pIC50 (AuroraB; [7]): 7.84
Cc1cc(-c2ccccc2)nnc1Nc1ccc(Oc2ncccc2-c2ccnc(N)c2)cc1 [compound 418] | ≥ 7.00 | ≥ 7.00 | –
Cc1csc(-c2cc(C)c(Nc3ccc(Oc4ncccc4-c4ccnc(N)c4)cc3)nn2)c1 [compound 419] | ≥ 7.00 | ≥ 7.00 | –
CCc1cc(-c2ccccc2)nnc1Nc1ccc(Oc2ncccc2-c2ccnc(N)c2)cc1 [compound 420] | – | – | pIC50 (AuroraA-TPX2; [6]): 7.25; pIC50 (AuroraB; [7]): 8.15
O=C(O)CCCNc1nccc(-c2cccnc2Oc2ccc(Nc3nnc(-c4ccccc4)c4ccccc34)cc2)n1 [compound 427] | ≥ 7.00 | ≥ 7.00 | –
Cc1csc(-c2cc(C)c(Nc3ccc(Oc4ncccc4-c4ccncc4)cc3)nn2)c1 [compound 428] | ≥ 7.00 | ≥ 7.00 | –
Cc1cc(-c2ccccc2)nnc1Nc1ccc(Oc2ncccc2-c2ccnc(NCCCO)n2)cc1 [compound 429] | ≥ 7.00 | ≥ 7.00 | –
Cc1cc(-c2ccccc2)nnc1Nc1ccc(Oc2ncccc2-c2ccnc(NCCCC(=O)O)n2)cc1 [compound 430] | ≥ 7.00 | ≥ 7.00 | –
Nc1cc(-c2cccnc2Oc2ccc(Nc3nnc(-c4ccccc4)c4ccccc34)cn2)ccn1 [compound 431] | ≥ 7.00 | ≥ 7.00 | –
Cc1csc(-c2cc(C)c(Nc3ccc(Oc4ncccc4-c4ccnc(N)c4)cc3)nn2)n1 [compound 434] | – | – | pIC50 (AuroraA-TPX2; [6]): 7.01; pIC50 (AuroraB; [7]): 8.02
COc1ccccc1-c1nnc(Nc2ccc(Oc3ncccc3-c3ccnc(N)c3)cc2)c2ccccc12 [compound 442] | – | – | pIC50 (AuroraA-TPX2; [6]): 6.43; pIC50 (AuroraB; [7]): 7.48
CCCc1cc(-c2ccccc2)nnc1Nc1ccc(Oc2ncccc2-c2ccnc(N)n2)cc1 [compound 445] | – | – | pIC50 (AuroraA-TPX2; [6]): 7.63; pIC50 (AuroraB; [7]): 8.51
Oc1cccc(-c2ccncc2)c1Oc1ccc(Nc2nnc(-c3ccccc3)c3ccccc23)cc1 [compound 447] | – | 5.60 to 6.30 | –
COc1cccc(-c2ccncc2)c1Oc1ccc(Nc2nnc(-c3ccccc3)c3ccccc23)cc1 [compound 448] | – | – | pIC50 (AuroraA-TPX2; [6]): 6.96; pIC50 (AuroraB; [7]): 8.02
